Experimental data as given in the supplement of paper PMC11061612.

Experiments:
Assay in all cases: Bliss excess, mean over the matrix (fraction); higher = more synergy
[1] = system: BFTC-905 (Bladder Carcinoma)
Procedure, shortened: (§1)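 Bliss excess equals the observed combination effect minus the expected value EA + EB − EA·EB, where EA and EB are the effects of each agent alone. Combination Emax is the second-highest inhibition within the matrix. Inhibition was scaled from CellTiter-Glo 2.0 luminescence, with 0 set by vehicle wells and 1 by blank wells, after 72 hours of two-drug dosing of cells plated in 1536-well plates.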

[2] = system: CAMA-1 (Breast Carcinoma)
Procedure, shortened: as §1

CHP-212 (Neuroblastoma) = system: CHP-212 (Neuroblastoma)
Procedure, shortened: as §1

[3] = system: DND-41 (T-Lymphoblastic Leukemia)
Procedure, shortened: as §1

ES1 (Ewing's Sarcoma) = system: ES1 (Ewing's Sarcoma)
Procedure, shortened: as §1

[4] = system: HDQ-P1 (Breast Carcinoma)
Procedure, shortened: as §1

[5] = system: K-562 (Chronic Myelogenous Leukemia)
Procedure, shortened: as §1

[6] = system: KM12 (Colorectal Carcinoma)
Procedure, shortened: as §1

[7] = system: KYSE-180 (Esophageal Squamous Cell Carcinoma)
Procedure, shortened: as §1

[8] = system: L-540 (Hodgkin's Lymphoma)
Procedure, shortened: as §1

[9] = system: MFM-223 (Breast Carcinoma)
Procedure, shortened: as §1

[10] = system: MKN28 (Gastric Carcinoma)
Procedure, shortened: as §1

[11] = system: NCI-H1792 (Lung Adenocarcinoma)
Procedure, shortened: as §1

[12] = system: NCI-H847 (Small Cell Lung Carcinoma)
Procedure, shortened: as §1

[13] = system: PANC-08-13 (Pancreatic Carcinoma)
Procedure, shortened: as §1

[14] = system: SU-DHL-8 (B-Cell Non-Hodgkin's Lymphoma)
Procedure, shortened: as §1

TC-71 (Ewing's Sarcoma) = system: TC-71 (Ewing's Sarcoma)
Procedure, shortened: as §1

[15] = system: TE-6 (Esophageal Squamous Cell Carcinoma)
Procedure, shortened: as §1

U251 (Low Grade Glioma) = system: U251 (Low Grade Glioma)
Procedure, shortened: as §1

WIL2-NS (Non-Cancerous) = system: WIL2-NS (Non-Cancerous)
Procedure, shortened: as §1

Row | SMILES | Bliss excess [1] | Bliss excess [2] | Bliss excess (CHP-212 (Neuroblastoma)) | Bliss excess [3] | Bliss excess (ES1 (Ewing's Sarcoma)) | Bliss excess [4] | Bliss excess [5] | Bliss excess [6] | Bliss excess [7] | Bliss excess [8] | Bliss excess [9] | Bliss excess [10] | Bliss excess [11] | Bliss excess [12] | Bliss excess [13] | Bliss excess [14] | Bliss excess (TC-71 (Ewing's Sarcoma)) | Bliss excess [15] | Bliss excess (U251 (Low Grade Glioma)) | Bliss excess (WIL2-NS (Non-Cancerous))
1 | Cc1cc2ncnn2cc1Nc1ncc2c(n1)n(C1CCOCC1)c(=O)n2C [AZD7648] + CN(C)CCCOc1ccc(-c2ccc3ncc4c(c3c2)n(C2CCOCC2)c(=O)n4C)cn1 [AZD0156] (first compound max 10 µM, 7x7, partner max 1 µM) | 0.0314 | -0.0238 | 0.0036 | 0.0251 | 0.0136 | 0.0157 | -0.0026 | 0.0312 | 0.0126 | -0.0074 | -0.0325 | -0.0127 | 0.0149 | -0.0113 | -0.0359 | 0.016 | 0.0438 | -0.0515 | 0.0214 | -0.0264
2 | Cc1cc2ncnn2cc1Nc1ncc2c(n1)n(C1CCOCC1)c(=O)n2C [AZD7648] + C[C@@H]1COCCN1C2=NC(=NC(=C2)C3(CC3)[S@](=N)(=O)C)C4=C5C=CNC5=NC=C4 [AZD6738] (first compound max 10 µM, 7x7, partner max 10 µM) | 0.0081 | -0.0631 | -0.0035 | -0.01 | -0.0001 | -0.0229 | -0.0096 | 0.0057 | 0.0394 | -0.0031 | -0.0127 | -0.0081 | -0.0047 | 0.0519 | 0.0227 | -0.0136 | 0.041 | 0.0697 | 0.0581 | 0.0015
3 | Cc1cc2ncnn2cc1Nc1ncc2c(n1)n(C1CCOCC1)c(=O)n2C [AZD7648] + O=C(c1cc(Cc2n[nH]c(=O)c3ccccc23)ccc1F)N1CCN(C(=O)C2CC2)CC1 [Olaparib] (first compound max 10 µM, 7x7, partner max 10 µM) | -0.0299 | -0.054 | -0.0391 | 0.0069 | -0.0604 | 0.0133 | 0.0107 | -0.035 | -0.0406 | -0.0352 | -0.0131 | -0.0411 | -0.033 | -0.0071 | -0.0538 | 0.0195 | -0.0106 | -0.0419 | 0.0043 | -0.0669
4 | COc1cccc2c1C(=O)c1c(O)c3c(c(O)c1C2=O)C[C@@](O)(C(=O)CO)C[C@@H]3O[C@H]1C[C@H](N)[C@H](O)[C@H](C)O1 [Doxorubicin] + Cc1cc2ncnn2cc1Nc1ncc2c(n1)n(C1CCOCC1)c(=O)n2C [AZD7648] (first compound max 1 µM, 7x7, partner max 10 µM) | 0.131 | 0.0266 | 0.0611 | 0.115 | 0.119 | 0.0561 | 0.076 | 0.0554 | 0.0587 | 0.0793 | 0.0261 | -0.0179 | 0.067 | 0.124 | -0.0102 | 0.0145 | 0.162 | -0.0541 | 0.0913 | 0.0885
5 | COc1cccc(OCCCN)c1-c1cc(Nc2cnc(C#N)cn2)n[nH]1 [Prexasertib] + C=CCn1c(=O)c2cnc(Nc3ccc(N4CCN(C)CC4)cc3)nc2n1-c1cccc(C(C)(C)O)n1 [AZD1775] (first compound max 1 µM, partner max 1 µM) | 0.147 | 0.11 | -0.0368 | -0.0247 | 0.0948 | 0.0861 | 0.0497 | 0.0787 | 0.132 | -0.0185 | 0.0825 | 0.0901 | 0.0638 | 0.0809 | -0.0174 | -0.0202 | 0.0949 | 0.0995 | 0.0943 | 0.0513
6 | COc1cccc(OCCCN)c1-c1cc(Nc2cnc(C#N)cn2)n[nH]1 [Prexasertib] + CCc1c2c(nc3ccc(O)cc13)-c1cc3c(c(=O)n1C2)COC(=O)[C@]3(O)CC [SN-38] (first compound max 1 µM, 7x7, partner max 0.3 µM) | -0.0004 | 0.0573 | -0.094 | -0.103 | 0.0085 | 0.0367 | 0.0726 | 0.0186 | 0.0525 | -0.0621 | 0.05 | -0.0082 | 0.0204 | 0.055 | 0.0182 | -0.0171 | 0.0187 | 0.128 | 0.0241 | -0.0234
7 | COc1cccc(OCCCN)c1-c1cc(Nc2cnc(C#N)cn2)n[nH]1 [Prexasertib] + CN(C)CCCOc1ccc(-c2ccc3ncc4c(c3c2)n(C2CCOCC2)c(=O)n4C)cn1 [AZD0156] (first compound max 1 µM, 7x7, partner max 1 µM) | 0.0125 | 0.0046 | -0.0377 | -0.101 | 0.0127 | 0.023 | -0.0217 | -0.0095 | 0.0022 | 0.0019 | -0.0028 | -0.0286 | -0.0104 | -0.0124 | -0.027 | -0.0553 | 0.026 | -0.0081 | -0.0092 | -0.0281
8 | COc1cccc(OCCCN)c1-c1cc(Nc2cnc(C#N)cn2)n[nH]1 [Prexasertib] + C[C@@H]1COCCN1C2=NC(=NC(=C2)C3(CC3)[S@](=N)(=O)C)C4=C5C=CNC5=NC=C4 [AZD6738] (first compound max 1 µM, 7x7, partner max 10 µM) | 0.0096 | -0.0484 | -0.0776 | -0.0651 | -0.0142 | 0.11 | -0.0435 | -0.0494 | -0.0702 | -0.0341 | -0.106 | 0.0579 | -0.0129 | -0.035 | -0.0421 | -0.0214 | -0.0164 | 0.0669 | -0.0193 | -0.0021
9 | COc1cccc(OCCCN)c1-c1cc(Nc2cnc(C#N)cn2)n[nH]1 [Prexasertib] + Cc1cc2ncnn2cc1Nc1ncc2c(n1)n(C1CCOCC1)c(=O)n2C [AZD7648] (first compound max 1 µM, 7x7, partner max 10 µM) | -0.0492 | -0.0206 | -0.0467 | -0.0979 | 0.0088 | -0.0236 | -0.0282 | -0.0399 | -0.0431 | -0.0223 | 0.0065 | -0.0172 | -0.0227 | 0.0131 | -0.0089 | -0.0221 | -0.0419 | 0.001 | -0.0114 | -0.0285
10 | COc1cccc(OCCCN)c1-c1cc(Nc2cnc(C#N)cn2)n[nH]1 [Prexasertib] + O=C(c1cc(Cc2n[nH]c(=O)c3ccccc23)ccc1F)N1CCN(C(=O)C2CC2)CC1 [Olaparib] (first compound max 1 µM, 7x7, partner max 10 µM) | -0.0751 | -0.188 | -0.0592 | -0.101 | -0.0161 | 0.0002 | -0.105 | -0.0192 | -0.0371 | -0.0351 | -0.124 | -0.133 | -0.0161 | -0.0027 | -0.076 | -0.0668 | -0.017 | -0.0452 | 0.0369 | -0.0174
11 | COc1cc2c(cc1OCCCCCOc1cc3c(cc1OC)C(=O)N1C=C(C)C[C@H]1C=N3)N=C[C@@H]1CC(C)=CN1C2=O [SG3199] + O=C(c1cc(Cc2n[nH]c(=O)c3ccccc23)ccc1F)N1CCN(C(=O)C2CC2)CC1 [Olaparib] (first compound max 0.001 µM, 7x7, partner max 10 µM) | -0.054 | -0.0443 | 0.0046 | -0.0067 | 0.0027 | -0.035 | -0.0041 | -0.0301 | -0.0177 | -0.0272 | -0.0307 | -0.0469 | -0.0479 | -0.0375 | -0.0319 | 0.0547 | -0.0224 | -0.0256 | -0.0016 | -0.0239
12 | CCc1c2c(nc3ccc(O)cc13)-c1cc3c(c(=O)n1C2)COC(=O)[C@]3(O)CC [SN-38] + CN(C)CCCOc1ccc(-c2ccc3ncc4c(c3c2)n(C2CCOCC2)c(=O)n4C)cn1 [AZD0156] (first compound max 0.3 µM, 7x7, partner max 1 µM) | 0.0608 | -0.0477 | 0.0143 | -0.0584 | 0.0784 | 0.0065 | 0.0331 | 0.0711 | 0.0421 | 0.0206 | -0.0144 | 0.0117 | 0.0517 | -0.023 | -0.0316 | -0.059 | 0.0736 | -0.0254 | -0.0239 | 0.08
13 | CC(=O)Nc1cccc(-n2c(=O)n(C3CC3)c(=O)c3c(Nc4ccc(I)cc4F)n(C)c(=O)c(C)c32)c1 [Trametinib] + Cc1nc(-c2cn3c(n2)-c2ccc(-c4cnn(C(C)(C)C(N)=O)c4)cc2OCC3)n(C(C)C)n1 [Taselisib] (first compound max 1 µM, 7x7, partner max 10 µM) | 0.167 | -0.0565 | 0.0363 | 0.164 | 0.0161 | 0.221 | 0.151 | 0.0284 | 0.0886 | 0.0227 | -0.0174 | 0.0966 | 0.109 | 0.0603 | 0.132 | -0.0358 | 0.136 | 0.0911 | 0.132 | 0.174
14 | CC1(C)CCC(CN2CCN(c3ccc(C(=O)NS(=O)(=O)c4ccc(NCC5CCOCC5)c([N+](=O)[O-])c4)c(Oc4cnc5[nH]ccc5c4)c3)CC2)=C(c2ccc(Cl)cc2)C1 [Venetoclax] + C1CN(CCC1(C(=O)N[C@@H](CCO)C2=CC=C(C=C2)Cl)N)C3=NC=NC4=C3C=CN4 [Capivasertib] (first compound max 1 µM, 7x7, partner max 3 µM) | -0.0288 | -0.056 | -0.0467 | 0.0019 | 0.0278 | -0.0234 | -0.0902 | -0.041 | -0.0208 | -0.0178 | -0.0258 | -0.0455 | -0.0549 | 0.0062 | -0.0608 | -0.0918 | -0.0684 | 0.0217 | -0.0133 | -0.0145
15 | CC1(C)CCC(CN2CCN(c3ccc(C(=O)NS(=O)(=O)c4ccc(NCC5CCOCC5)c([N+](=O)[O-])c4)c(Oc4cnc5[nH]ccc5c4)c3)CC2)=C(c2ccc(Cl)cc2)C1 [Venetoclax] + C=CCn1c(=O)c2cnc(Nc3ccc(N4CCN(C)CC4)cc3)nc2n1-c1cccc(C(C)(C)O)n1 [AZD1775] (first compound max 1 µM, partner max 1 µM) | 0.0078 | 0.0033 | -0.0497 | 0.103 | 0.0747 | -0.014 | 0.0486 | -0.0538 | 0.0264 | 0.069 | -0.0987 | -0.0029 | 0.0479 | -0.0022 | -0.0153 | 0.0401 | -0.0215 | -0.0859 | -0.0787 | 0.054
